PubChem BioAssay AID2060492 (Molecular Pharmacology Branch, DTP, NCI, 2025)

Tested on: 695427-040-R-J1-PDC complex spheroids, viability percent T/C
Experiment: Anticancer human tumor 695427-040-R-J1-PDC patient-derived colon adenocarcinoma cell line growth inhibition [GQUAD]
Conditions: for IC50: curve of first compound; for viability, T/C: stronger effect = lower value
Method in brief: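 Viability of tumor cells grown as complex spheroids with endothelial and stromal cells, exposed to drug combinations. Top concentration at or near clinical Cmax (else 10 microM), diluted in half-log increments.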

[1] = second compound 0.0316 µM, first compound 0.0316 µM
[2] = second compound 0.0316 µM, first compound 0.1 µM
[3] = second compound 0.0316 µM, first compound 0.316 µM
[4] = second compound 0.0316 µM, first compound 1 µM
[5] = second compound 0.0316 µM, first compound 3.16 µM
[6] = second compound 0.0316 µM, first compound 10 µM
[7] = second compound 0.1 µM, first compound 0.0316 µM
[8] = second compound 0.1 µM, first compound 0.1 µM
[9] = second compound 0.1 µM, first compound 0.316 µM
[10] = second compound 0.1 µM, first compound 1 µM
[11] = second compound 0.1 µM, first compound 3.16 µM
[12] = second compound 0.1 µM, first compound 10 µM
[13] = second compound 0.316 µM, first compound 0.0316 µM
[14] = second compound 0.316 µM, first compound 0.1 µM
[15] = second compound 0.316 µM, first compound 0.316 µM
[16] = second compound 0.316 µM, first compound 1 µM
[17] = second compound 0.316 µM, first compound 3.16 µM
[18] = second compound 0.316 µM, first compound 10 µM
[19] = second compound 1 µM, first compound 0.0316 µM
[20] = second compound 1 µM, first compound 0.1 µM
[21] = second compound 1 µM, first compound 0.316 µM
[22] = second compound 1 µM, first compound 1 µM
[23] = second compound 1 µM, first compound 3.16 µM
[24] = second compound 1 µM, first compound 10 µM
[25] = second compound 3.16 µM, first compound 0.0316 µM
[26] = second compound 3.16 µM, first compound 0.1 µM
[27] = second compound 3.16 µM, first compound 0.316 µM
[28] = second compound 3.16 µM, first compound 1 µM
[29] = second compound 3.16 µM, first compound 3.16 µM
[30] = second compound 3.16 µM, first compound 10 µM
[31] = second compound 10 µM, first compound 0.0316 µM
[32] = second compound 10 µM, first compound 0.1 µM
[33] = second compound 10 µM, first compound 0.316 µM
[34] = second compound 10 µM, first compound 1 µM
[35] = second compound 10 µM, first compound 3.16 µM
[36] = second compound 10 µM, first compound 10 µM
[37] = second compound 0.0316 µM, first compound 0.000999 µM
[38] = second compound 0.0316 µM, first compound 0.00316 µM
[39] = second compound 0.0316 µM, first compound 0.00999 µM
[40] = second compound 0.0316 µM, first compound 0.0999 µM
[41] = second compound 0.1 µM, first compound 0.000999 µM
[42] = second compound 0.1 µM, first compound 0.00316 µM
[43] = second compound 0.1 µM, first compound 0.00999 µM
[44] = second compound 0.1 µM, first compound 0.0999 µM
[45] = second compound 0.316 µM, first compound 0.000999 µM
[46] = second compound 0.316 µM, first compound 0.00316 µM
[47] = second compound 0.316 µM, first compound 0.00999 µM
[48] = second compound 0.316 µM, first compound 0.0999 µM
[49] = second compound 1 µM, first compound 0.000999 µM
[50] = second compound 1 µM, first compound 0.00316 µM
[51] = second compound 1 µM, first compound 0.00999 µM
[52] = second compound 1 µM, first compound 0.0999 µM
[53] = second compound 3.16 µM, first compound 0.000999 µM
[54] = second compound 3.16 µM, first compound 0.00316 µM
[55] = second compound 3.16 µM, first compound 0.00999 µM
[56] = second compound 3.16 µM, first compound 0.0999 µM
[57] = second compound 10 µM, first compound 0.000999 µM
[58] = second compound 10 µM, first compound 0.00316 µM
[59] = second compound 10 µM, first compound 0.00999 µM
[60] = second compound 10 µM, first compound 0.0999 µM
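Note: spheroids exposed to compounds for seven days before readout.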

CC1COCCN1c1cc(C2(O)CC3CCC(C2)O3)c2cnn(-c3ccn[nH]3)c2n1 (stereo not drawn) + Cc1[nH]c2ccc(F)cc2c1-c1nc2c3cccnc3c3ncccc3c2[nH]1
IC50 (second compound 0.0316 µM): 735 nM
IC50 (second compound 0.1 µM): 590 nM
IC50 (second compound 0.316 µM): 569 nM
IC50 (second compound 1 µM): 290 nM
IC50 (second compound 3.16 µM): 253 nM
IC50 (second compound 10 µM): 455 nM
viability, T/C [1]: 83.2%
viability, T/C [2]: 84.2%
viability, T/C [3]: 65.7%
viability, T/C [4]: 42.5%
viability, T/C [5]: 36%
viability, T/C [6]: 24.6%
viability, T/C [7]: 93.8%
viability, T/C [8]: 77.5%
viability, T/C [9]: 70.4%
viability, T/C [10]: 31.4%
viability, T/C [11]: 37.6%
viability, T/C [12]: 28.1%
viability, T/C [13]: 85.2%
viability, T/C [14]: 64%
viability, T/C [15]: 60.6%
viability, T/C [16]: 41.7%
viability, T/C [17]: 37.5%
viability, T/C [18]: 30.2%
viability, T/C [19]: 86.2%
viability, T/C [20]: 55.8%
viability, T/C [21]: 55.2%
viability, T/C [22]: 33.6%
viability, T/C [23]: 41%
viability, T/C [24]: 21.2%
viability, T/C [25]: 67%
viability, T/C [26]: 55.8%
viability, T/C [27]: 50.9%
viability, T/C [28]: 34.2%
viability, T/C [29]: 33.2%
viability, T/C [30]: 17.4%
viability, T/C [31]: 59%
viability, T/C [32]: 59.8%
viability, T/C [33]: 61.7%
viability, T/C [34]: 27.9%
viability, T/C [35]: 30.4%
viability, T/C [36]: 22.3%

CCc1c2c(nc3ccc(O)cc13)-c1cc3c(c(=O)n1C2)COC(=O)[C@]3(O)CC + Cc1[nH]c2ccc(F)cc2c1-c1nc2c3cccnc3c3ncccc3c2[nH]1
IC50 (second compound 0.0316 µM): 168 nM
IC50 (second compound 0.1 µM): 161 nM
IC50 (second compound 0.316 µM): 112 nM
IC50 (second compound 1 µM): 106 nM
IC50 (second compound 3.16 µM): 82.4 nM
IC50 (second compound 10 µM): 106 nM
viability, T/C [37]: 95.4%
viability, T/C [38]: 74%
viability, T/C [39]: 87.9%
viability, T/C [1]: 57.8%
viability, T/C [40]: 62%
viability, T/C [3]: 40.8%
viability, T/C [41]: 93.7%
viability, T/C [42]: 71.6%
viability, T/C [43]: 80.2%
viability, T/C [7]: 57.7%
viability, T/C [44]: 57.6%
viability, T/C [9]: 43%
viability, T/C [45]: 99.5%
viability, T/C [46]: 64.2%
viability, T/C [47]: 82.2%
viability, T/C [13]: 63.2%
viability, T/C [48]: 56.1%
viability, T/C [15]: 34.5%
viability, T/C [49]: 67.7%
viability, T/C [50]: 85.8%
viability, T/C [51]: 82%
viability, T/C [19]: 64.6%
viability, T/C [52]: 52.5%
viability, T/C [21]: 37.6%
viability, T/C [53]: 72%
viability, T/C [54]: 74.5%
viability, T/C [55]: 63.5%
viability, T/C [25]: 59.5%
viability, T/C [56]: 48.7%
viability, T/C [27]: 33.2%
viability, T/C [57]: 71.9%
viability, T/C [58]: 72.2%
viability, T/C [59]: 66.4%
viability, T/C [31]: 60.8%
viability, T/C [60]: 49.8%
viability, T/C [33]: 37.4%

Cn1ncnc1[C@H]1c2n[nH]c(=O)c3cc(F)cc(c23)N[C@@H]1c1ccc(F)cc1 + Cc1[nH]c2ccc(F)cc2c1-c1nc2c3cccnc3c3ncccc3c2[nH]1
IC50 (second compound 0.0316 µM): > 316 nM
IC50 (second compound 0.1 µM): > 316 nM
IC50 (second compound 0.316 µM): > 316 nM
IC50 (second compound 1 µM): > 316 nM
IC50 (second compound 3.16 µM): > 316 nM
IC50 (second compound 10 µM): > 316 nM
viability, T/C [37]: 98.9%
viability, T/C [38]: 86.2%
viability, T/C [39]: 98.2%
viability, T/C [1]: 103%
viability, T/C [40]: 104%
viability, T/C [3]: 66.6%
viability, T/C [41]: 99.1%
viability, T/C [42]: 93.8%
viability, T/C [43]: 82%
viability, T/C [7]: 79.8%
viability, T/C [44]: 97.8%
viability, T/C [9]: 66.8%
viability, T/C [45]: 99.7%
viability, T/C [46]: 84.7%
viability, T/C [47]: 91.4%
viability, T/C [13]: 89.1%
viability, T/C [48]: 103%
viability, T/C [15]: 81.9%
viability, T/C [49]: 97.4%
viability, T/C [50]: 68.8%
viability, T/C [51]: 87.5%
viability, T/C [19]: 91.3%
viability, T/C [52]: 96.1%
viability, T/C [21]: 68.2%
viability, T/C [53]: 76.8%
viability, T/C [54]: 87%
viability, T/C [55]: 85.3%
viability, T/C [25]: 79.9%
viability, T/C [56]: 83.7%
viability, T/C [27]: 86%
viability, T/C [57]: 70.9%
viability, T/C [58]: 56.1%
viability, T/C [59]: 88.3%
viability, T/C [31]: 80.5%
viability, T/C [60]: 82.7%
viability, T/C [33]: 74.3%

O=C(c1cc(Cc2n[nH]c(=O)c3ccccc23)ccc1F)N1CCN(C(=O)C2CC2)CC1 + Cc1[nH]c2ccc(F)cc2c1-c1nc2c3cccnc3c3ncccc3c2[nH]1
IC50 (second compound 0.0316 µM): > 10000 nM
IC50 (second compound 0.1 µM): > 10000 nM
IC50 (second compound 0.316 µM): > 10000 nM
IC50 (second compound 1 µM): > 10000 nM
IC50 (second compound 3.16 µM): < 31.6 nM
IC50 (second compound 10 µM): > 10000 nM
viability, T/C [1]: 97.7%
viability, T/C [2]: 105%
viability, T/C [3]: 101%
viability, T/C [4]: 82.3%
viability, T/C [5]: 94.6%
viability, T/C [6]: 95.2%
viability, T/C [7]: 114%
viability, T/C [8]: 93.4%
viability, T/C [9]: 97.7%
viability, T/C [10]: 78.3%
viability, T/C [11]: 93.2%
viability, T/C [12]: 84.9%
viability, T/C [13]: 105%
viability, T/C [14]: 89.1%
viability, T/C [15]: 91.5%
viability, T/C [16]: 91.1%
viability, T/C [17]: 96%
viability, T/C [18]: 102%
viability, T/C [19]: 84.3%
viability, T/C [20]: 87.4%
viability, T/C [21]: 73.1%
viability, T/C [22]: 78.5%
viability, T/C [23]: 99.5%
viability, T/C [24]: 79.2%
viability, T/C [25]: 47.6%
viability, T/C [26]: 87.2%
viability, T/C [27]: 74.8%
viability, T/C [28]: 69.1%
viability, T/C [29]: 91%
viability, T/C [30]: 87.4%
viability, T/C [31]: 62.6%
viability, T/C [32]: 69.1%
viability, T/C [33]: 92.1%
viability, T/C [34]: 82.5%
viability, T/C [35]: 75.9%
viability, T/C [36]: 89.8%
